Earlier results in patent US20080221211A1, “METHOD OF TREATMENT OF NEUROLOGICAL INJURY OR CANCER BY ADMINISTRATION OF DICHLOROACETATE” (priority 2007, published 2008).

Columns and labels:
cancer cell lines = details: restored mitochondrial function and apoptosis
tumors = details: rat model
[1] = in vivo
[2] = system: infarct size after stroke; details: rat; given within 2.25 hours of a stroke
[3] = system: cytochome oxidase activity in primary neurons
infarct size = details: rat pMCAo model; infusion

O=C(O)C(Cl)Cl [DCA, dichloroacetic acid]
effect on cancer cells in vitro (cancer cell lines): killing cancer cells in vitro | effect on tumors in rats (tumors): shrinking the tumors in rats | reported adverse effect [1]: neuropathy

CC(C)(C)[N+]([O-])=Cc1ccc(S(=O)(=O)[O-])cc1S(=O)(=O)[O-].[Na+].[Na+] [NXY-059]
effect on infarct size [2]: reduces infarct size

NC1=N[C@H](O)[C@H]2[C@H]3O[C@]4(O)O[C@@H]([C@@H](O)[C@@]2(N1)[C@@H]4O)[C@]3(O)CO [TTX, tetrodotoxin]
effect on cytochrome oxidase activity [3]: reduces cytochome oxidase activity

VEGF
effect on infarct size (infarct size): reduction of infarct size
